Assay results as given in patent publication US20230047816A1 (priority 2018, published 2023).
“Also recorded” adds a separate entry of the source.

Assays:
[1] = system: MCAO model of brain ischemia; assay: MCAO model of brain ischemia, rota-rod test; format: in vivo, C57BL/6-J mice; conditions: 60 mg/kg bolus via jugular vein after reperfusion; 30 mins occlusion; test 24 hours after MCAO
Description: For the MCAO model of brain ischemia, 10 weeks-old male C57BL/6-J mice were used (n=8 animals per condition) following a published protocol (1,2). Mice were anesthetized with 4% (vol/vol) Sevoflurane in a mixture of ⅓ O2 and ⅔ N2O using a vaporizer. After the induction of anesthesia, Sevoflurane was reduced to 3% (vol/vol). The body temperature was maintained at 36.5° C. during the surgery. A laser-Doppler flow probe attached to a flowmeter was located over the thinned skull in the MCAO area (4 mm lateral to bregma) to monitor the relative cerebral brain flow during the experiment. Under operating microscope, the common, external and internal carotid arteries were dissected from connective tissue through a midline neck incision. The common carotid artery (CCA) was carefully dissected from the surrounding nerves with caution to avoid harming of the vagal nerve. A suture monofilament was introduced from the lumen of the external carotid artery (ECA) into the internal carotid artery (ICA) to a distance of 9-10 mm beyond the CCA bifurcation, in order to occlude the origin of middle cerebral artery (MCA). The filament was removed 30 mins after occlusion. AZ67 or compound 1 (60 mg/kg of body weight) or vehicle were administered in a bolus (200 μl) via the jugular vein immediately after reperfusion. […] The latency to fall was determined and expressed in seconds.

[2] = system: iPSC-derived neural precursor cells (NPC) from CLN7 patients; assay: Perinuclear mitochondria in iPSC-derived neural precursor cells from CLN7 patients; format: cell-based; conditions: FIG. 16
[3] = system: primary neurons; assay: NADPH/NADP ratio under excitotoxic conditions induced by glutamate; format: cell-based; conditions: 0.01 μM, FIG. 4A
[4] = system: mouse cortical primary neurons; assay: β-amyloid-induced neuronal apoptosis (annexin V/7-AAD flow cytometry); format: cell-based; conditions: β-amyloid 24 hours
Description: Primary cultures of C57BL/6 mice cortical neurons were prepared from fetal animals of 14.5 days of gestation, seeded at 1.8·10^5 cells/cm^2 in plastic plates coated with poly-D-lysine (10 mg/ml) and incubated in Neurobasal (Life Technologies) supplemented with 2 mM glutamine, 5 mM of glucose, 0.25 mM pyruvate and 2% B27 supplement (Life Technologies). Cells were incubated at 37° C. in a humidified 5% CO2-containing atmosphere. At 72 hours after plating, medium was replaced using Neurobasal (Life Technologies) supplemented with 2 mM glutamine, 5 mM glucose, 0.25 mM pyruvate and 2% B27 supplement (Life Technologies) minus antioxidants (MAO; i.e., lacking vitamin E, vitamin E acetate, superoxide dismutase, catalase and glutathione). […] APC/C-conjugated annexin-V and 7-amino-actinomycin D (7-AAD) (Becton Dickinson Biosciences, BDB, San Jose, Calif., USA) were used to determine quantitatively the percentage of apoptotic neurons by flow cytometry. Cells were stained with annexin V-APC and 7-AAD, following the manufacturer's instructions, and were analysed on a FACScalibur™ flow cytometer (15 mW argon ion laser tuned at 488 nm; CellQuest software, Becton Dickinson Biosciences) using the CellQuest software (BDB). Both GFP+ and GFP− cells were analyzed separately, and the annexin V-APC-stained cells that were 7-AAD-negative were considered to be apoptotic.

[5] = system: neurons transfected with PFK1-M; assay: Excitotoxic insult in neurons overexpressing PFK1-M; format: cell-based, mouse; conditions: PFK1-M (muscle isoform) overexpression
Description: To address whether the protection caused by PFKFB3 inhibitors was a consequence of hampering the glycolytic activation (FIG. 4B), we aimed to investigate whether the overexpression of the glycolytic enzyme, PFK1-muscle isoform, could revert PFKFB3 inhibitors-mediated neuroprotection. […] Accordingly, neurons were first transfected with the full-length cDNA encoding for PFK1-M, and then subjected to the excitotoxic insult. Cells were transfected with 1.6 μg/mL of a pIRES2-EGFP plasmid vector (Invitrogen) harbouring a full-length cDNA coding for the human muscle 6-phosphofructo-1-kinase muscle isoform (PFK1-M) (accession number, NM_000289.1) using Lipofectamine LTX-PLUS Reagent (Life Technologies) according with manufacturer's protocol. Transfections were performed 24 hours before cells collection. Control cells were transfected with the empty vector. Cells were treated with excitotoxic stimuli as described above.

[6] = system: primary neurons; assay: Mitochondrial ROS in NMDA and glutamate excitotoxic models; format: cell-based; conditions: 0.01 μM, triggered by NMDA and glutamate, FIG. 4B

Cc1noc(C)c1Cn1cc(C#N)c2cc(Oc3ccc(NC(=O)[C@@H]4CCCN4)cc3)ccc21 [AZ67, (2S)-N-[4-({3-cyano-1-[(3,5-dimethyl-1,2-oxazol-4-yl)methyl]-1H-indol-5-yl}oxy)phenyl]pyrrolidine-2-carboxamide]
improvement in rota-rod test performance (latency to fall) [1]: ~50% | loss of perinuclear mitochondria [2]: rectified the loss of perinuclear mitochondria | NADPH/NADP ratio [3]: restore NADPH/NADP ratio | prevention of apoptotic neuronal death caused by β-amyloid [4]: ~60% | neuroprotection under PFK1-M overexpression [5]: abolish the neuroprotection; also recorded: abrogates the neuroprotective effect | increase in mitochondrial ROS [6]: significantly prevented
